From US12215118B2, “Quinone methide analog signal amplification” (Ventana Medical Systems, Inc., priority 2014, dated 2025)

Assays:
[1] = system: Bcl2 on FFPE tonsil tissue; experiment: HRP DAB amplified by QMP-biotin with different linkers; settings: 100 nM, CHES pH 10.0, different linkers
Description: The tissue was deparaffinized and retrieved as described in the general procedures. Mouse-anti-Bcl-2 antibody incubation (37° C., 16 minutes) and washing were followed by secondary antibody incubation with a goat polyclonal anti-mouse antibody conjugated to AP (37° C.; 12 minutes). After incubating with the AP conjugate the slides were washed with Special Stains wash. Monofluoro QMP-biotin (with aniline amide (FIG. 23(A)), benzoic amide (FIG. 23(B)) or tyramide amide linker (FIG. 23(C)) (100 nM) was dissolved in 100 mM CHES, pH 10.0, 0.05% Brij-35 to a final concentration of 100 nM. QMP turnover was achieved by adding 100 μL of AP Enhancer followed by 100 μL of biotin labeled QMP and incubating at 37° C. for 16 minutes. The deposited biotin was subsequently bound by a streptavidin-HRP conjugate (37° C.; 8 minutes), and visualized via a brown precipitate produced by HRP upon the addition of hydrogen peroxide and DAB (37° C.; 8 minutes). The DAB was toned by the addition of copper sulfate (37° C.; 4 minutes). The stained tissue sections were counterstained with modified Mayer's hematoxylin (37° C.; 4 minutes) and then incubated with Bluing Reagent (37° C.; 4 minutes). They were then dehydrated through a graded ethanol series, cleared with xylene, and manually cover-slipped.

[2] = system: BCL6 on FFPE tonsil tissue; experiment: AP-based CARD IHC with biotinylated QM precursor followed by DAB detection
Description: Detection 1—HRP DAB. After incubating with the AP conjugate the slides were washed with Special Stains wash (VMSI #860-015). QMP reagents were dissolved in 100 mM CHES (3-cyclo-hexylamino-ethylsulfonic acid), pH 10.0, 0.05% Brij-35. QMP turnover was achieved by adding 100 μL of AP Enhancer (VMSI #253-2182) followed by 100 μL of hapten labeled QMP and incubating at 37° C. for 16 minutes. Compound 29 is an exemplary hapten-QMP that could be used according to this method. The deposited hapten was subsequently bound by a mouse-anti-hapten-HRP conjugate (or streptavidin-HRP) (37° C.; 8 minutes), and visualized via a brown precipitate produced by HRP upon the addition of hydrogen peroxide and DAB (37° C.; 8 minutes). The DAB was toned by the addition of copper sulfate (37° C.; 4 minutes). The stained tissue sections were counterstained with modified Mayer's hematoxylin (Hematoxylin II, VMSI #790-2208) (37° C.; 4 minutes) and then incubated with Bluing Reagent (VMSI #760-2037) (37° C.; 4 minutes). The slides were then dehydrated through a graded ethanol series, cleared with xylene, and manually cover-slipped.
Both compounds utilize fluoride as the leaving group, but the reactivity of the QM derived from difluoro compound 58 should be considerably lower than monofluoro 7 due to the electronic stabilization offered by the geminal fluorine atom. […] Therefore, the difluoro QM precursor compound 58 was evaluated first for IHC staining performance on FFPE tissue using the nuclear marker BCL6 on FFPE tonsil tissue as a model system. The biotin-labeled difluoro QM precursor successfully bound to the sample as evidenced by subsequent biotin visualization using diaminobenzidine (DAB) detection. FIG. 18 provides microphotographs illustrating the detection level at varying concentrations of the difluoro QM precursor in a Tris buffer at pH=8.5 (panel A—DAB control, panel B—1 μM, panel C—10 μM and panel D—20 μM). In addition, significant amplification of signal was observed compared to the DAB control sample when on-slide concentrations of difluoro QM precursor compound 58 greater than […] were utilized.
To test the effect of pH on signal diffusion, difluoro QM precursor compound 58 was deposited as before at various pH levels within the working range for AP (7-12 with two shoulders of maximal activity at pH=8.5 and 11). The nuclear marker BCL6 on FFPE tonsil tissue was again chosen as the model. Positive staining was observed across the entire pH range, although a balance between overall signal and diffusion was seen. FIG. 19, panels A-H provide microphotographs of the detection levels of 20 µM QM precursor in Tris buffer with varying pH: panel A—DAB control; panel B pH=7.0; panel C pH=8.0; panel D pH=8.5; panel E pH=9.0; panel F pH=10.0; panel G pH=11.0; panel H pH=12.0. The diffusion appears to decrease with increasing pH. […] The level of amplification increased only as the pH rose to 8.5 and then decreased gradually over the rest of the range. This effect may be due to a combination of enzyme activity and the population of QM quenchers in the reaction media. At pH levels well below the optimal AP reaction conditions (7.0), the activity of AP was depressed, resulting in low signal. As the pH increased (8.0-8.5) but remained near the pKa of Tris (8.1), the activity of AP increased at a faster rate than the population of quenchers in the reaction media, leading to a significant increase in signal. Raising the pH further (9-10) increased the quencher population while decreasing AP activity, resulting in a decrease of signal. Although AP had maximal activity at pH 11 in Tris, a slight decrease in staining intensity was observed, most likely due to the excessively high population of quenchers that could not be overcome by the increased AP activity (raising the pH from 8.5 to 11 increases [Tris base] about 50%, with AP activity increasing by only about 20%). […]

[3] = system: alkaline phosphatase (AP); experiment: Trapping of the QM intermediate with Tris in solution, HPLC-MS; assay type: biochemical; settings: pH 10 Tris buffer
Description: To probe the mechanism of staining and quenching, an attempt was made to trap the QM intermediate formed by monofluoro QM precursor 7 in solution-phase under similar conditions to those utilized in the staining experiments (FIG. 26). QM precursor 7 was dissolved in pH 10 Tris buffer followed by addition of a catalytic amount of AP. The reaction progress was monitored by HPLC-MS (FIG. 27, panels A-C). Within 10 minutes, complete conversion to the Tris adduct 7-tris was observed (panel C).

SMILES | signal resolution [1] | diffusion and off-target staining ([2]; 250 nM, Tris buffer, pH of 10) | concentration required to give the desired level of amplification ([2]; pH 8.5 in Tris buffer) | overall diffusion compared to difluoro QM precursor 58 ([2]; pH 8.5 in Tris buffer) | time to complete conversion to the Tris adduct ([3]; catalytic amount of AP) | reaction in the absence of AP ([3]; no AP)
O=C(CCCCC1SCC2NC(=O)NC21)NCCCCCNC(=O)c1ccc(OP(=O)(O)O)c(CF)c1 (stereo not shown) [Compound 21, 2-(fluoromethyl)-4-((5-(5-(2-oxohexahydro-1H-thieno[3,4-d]imidazol-4-yl)pentanamido)pentyl)carbamoyl)phenyl dihydrogen phosphate] | more diffuse, less resolved signal |  |  |  |  | 
O=C(CCCCC1SCC2NC(=O)NC21)NCCCCCC(=O)Nc1ccc(OP(=O)(O)O)c(CF)c1 (stereo not shown) [Compound 7, 2-(fluoromethyl)-4-(6-(5-(2-oxohexahydro-1H-thieno[3,4-d]imidazol-4-yl)pentanamido)hexanamido)phenyl dihydrogen phosphate] | well resolved signals | nearly eliminated | 250 nM | greatly reduced | ≤ 10 min | no reaction took place
